Earlier results in patent publication US20090182024A1, “EXTENDED RELEASE TABLET FORMULATION CONTAINING PRAMIPEXOLE OR A PHARMACEUTICALLY ACCEPTABLE SALT THEREOF” (BOEHRINGER INGELHEIM INTERNATIONAL GMBH, priority 2004, published 2009).
Structures can show the parent of a compound that is named as a salt.

Key:
[1] = not given; remark: listed apart in the source
[2] = in vivo

Row | solubility in buffer media (between pH 2 and pH 7.4) | Water solubility (water) | stability in solution ([1]; in solution) | stability in the solid state ([1]; solid state) | kinetics [2] | SMILES
1 | above 10 mg/mL | more than 20 mg/mL | – | – | – | CCCN[C@H]1CCc2nc(N)sc2C1 [Pramipexole dihydrochloride monohydrate, pramipexole dihydrochloride monohydrate]
2 | – | – | light sensitive | very stable | linear kinetics | CCCN[C@H]1CCc2nc(N)sc2C1 [Pramipexole, (S)-2-amino-4,5,6,7-tetrahydro-6-(propylamino)benzothiazole]
